Entries after “also recorded” stand apart in the source; their conditions may differ. Read-outs that look alike come from different tables or passages of the source.
Columns and labels:
[1] = test system: chronic renal failure induced by 5/6 nephrectomy in rats; assay type: in vivo, Male Wistar rats
Protocol: The model on chronic renal failure induced by partial renal ablation in rats was set up according to the Guidelines of Pre-clinic Research for New Drugs. Male Wistar rats with initial body weights of 200 g, anesthetized with 35 mg/kg of pentobarbital i.p., the right kidney was removed, and the upper and lower pole […] of the left kidney were resected, stop bleeding, closed the abdominal and sutured. Four weeks following surgery, the BUN, creatinine and urinary protein in rats were determined. […] Rats were randomly divided into seven groups, 30/group, with sham, model, Benazepril (4 mg/kg/day) and Losartan (10 mg/kg/day) as positive control, and compound 149 groups (7.5 mg/kg/day, 15 mg/kg/day and 30 mg/kg/day, respectively). All the groups were administered intragastrically, once per day and 6 (six) times per week, till 16 weeks post surgery. Body weights were weighed to observe the growth of the rats. The above indexes were determined every 4 weeks up to the 16th week following the initiation of drug administration, and at each time, a number of animals were sacrificed and the kidneys were harvested for pathological analysis. Pathological lesions in chronic renal failure models are mainly glomerulosclerosis and interstitial fibrosis. According to the damage extents, glomerulosclerosis is divided into five grades (0 IV). 0 grade means no glomerulus pathological changes at all, and IV grade means ultimately glomerular sclerosis and glassy pathological changes.

[2] = test system: kidney tubulointerstitial fibrosis caused by unilateral ureteral obstruction (UUO) in rats; assay: Inhibition of kidney tubulointerstitial fibrosis caused by unilateral ureteral obstruction (UUO) in rats; assay type: in vivo, Male Wistar rats; settings: for BUN / Scr. (serum creatinine): oral for 16 days
Protocol: Male Wistar rats with initial body weights of 180˜230 g were used. Unilateral ureteral obstruction was performed under pentobarbital anesthesia (35 mg/kg) and sterile conditions. Via a midline incision, the left ureteral was ligated. Sham surgery was performed by making a midline incision but leaving ureteral intact. Following surgery, rats were randomly divided into sham, model, Benazepril (4 mg/kg/day) and Losartan (10 mg/kg/day) as positive control, and compound 149 (5 mg/kg/day, 10 mg/kg/day and 20 mg/kg/day). Starting 2 day before surgery, Benazepril, Losartan and compound 149 were administered for 16 days orally. BUN and creatinine in serum were determined in the 11th and 16th day (Table 6) following initiation of Benazepril, Losartan and compound 149 treatment, at which time animals were killed and the kidneys were harvested. Tissues were dissected, weighed, fixed in 10% formaldehyde and embedded in paraffin wax for pathological analysis.

[3] = Primary acute toxicity test; assay type: in vivo; settings: mice
Protocol: 5 g/kg and 10 g/kg of compound 149 were administered orally to mice once and observed for 14 days. Body weights of 48 hours after administration in mice were no different. At 14th day after administration, the mouse average body weights in 5 g/kg and 10 g/kg groups increased 7 g and 5 g respectively. There was no any other different for every animal and no death were observed.

[4] = test system: Salmonella typhimurium TA97, TA98, TA100 and TA102; assay: Ames test; assay type: cell-based; settings: 0.5-5000.0 μg/plate, presence or absence of S9
Protocol: His^− type Salmonella typhimurium TA97, TA98, TA100 and TA102 were employed. Concentration of the test compound was 0.5, 5.0, 50.0, 500.0, 5000.0 μg/plate. S9 was the microsome component of liver homogenate of a rat weighted 200 g. The test compound 149 was tested in the presence or absence of S9.
According to the Salmonella typhimurium/mammalian microsome enzyme mutagenic test method revised by Ames (1983), metabolism activated or non-metabolism activated plate incorporation assay was conducted on compound 149, and the strain which passed the assay was seeded to the culture medium and incubated at 37° C. under shaking for 15 hours. 100 μl compound solutions with various concentrations were added to 0.1 ml of the culture liquid, and then S9 mixture or phosphate buffer was added, and the mixtures were incubated in a 37° C. water bath for 20 minutes. After that, 2 ml of upper layer agar was added, mixed well and poured into a plate with lower layer agar and incubated at 37° C. for 48 hours. The number of the colonies in each plate was counted.

[5] = 8th week after administration (12 weeks after nephrectomy), 7.5 mg/kg
[6] = 8th week after administration (12 weeks after nephrectomy), 15 mg/kg
[7] = 8th week after administration (12 weeks after nephrectomy), 30 mg/kg
[8] = 8th week after administration (12 wk after nephrectomy), 7.5 mg/kg
[9] = 8th week after administration (12 wk after nephrectomy), 15 mg/kg
[10] = 8th week after administration (12 wk after nephrectomy), 30 mg/kg
[11] = 12th week after administration (16 weeks after nephrectomy), 7.5 mg/kg
[12] = 12th week after administration (16 weeks after nephrectomy), 15 mg/kg
[13] = 12th week after administration (16 weeks after nephrectomy), 30 mg/kg
[14] = 12th week after administration (16 wk after nephrectomy), 7.5 mg/kg
[15] = 12th week after administration (16 wk after nephrectomy), 15 mg/kg
[16] = 12th week after administration (16 wk after nephrectomy), 30 mg/kg

Structure (SMILES): Cc1c(O)c([N+](=O)[O-])cc2cc(C(=O)Nc3ccc(O)c(C(=O)O)c3)c(=O)oc12 [Compound 149, 3-(3′-carboxy-4′-hydroxy-phenylamidocarbonyl)-6-nitro-7-hydroxy-8-methyl-coumarin]
- various parameters (BUN, Cre, TGF-β1, Ang II) compared with the positive controls Benazepril and Losartan ([1]; 5/6 nephrectomy rats): all better than those of the Benazepril group and are equivalent to those of the Losartan group
- BUN [1, 5]: 22.35 ± 3.120 mg/dL
- serum creatinine (Scr.) [1, 5]: 2.14 ± 0.500 mg/dL
- BUN [1, 6]: 26.04 ± 4.234 mg/dL
- serum creatinine (Scr.) [1, 6]: 1.80 ± 0.550 mg/dL
- BUN [1, 7]: 30.54 ± 11.697 mg/dL
- serum creatinine (Scr.) [1, 7]: 1.89 ± 0.184 mg/dL
- AII (Angiotensin II) [1, 8]: 63.9 ± 13.2 pg/mL
- UP (urinary protein) [1, 8]: 30.1 ± 16.6 mg/day
- serum TGF-β1 [1, 8]: 20.0 ± 6.7 ng/mL
- AII (Angiotensin II) [1, 9]: 49.9 ± 21.3 pg/mL
- UP (urinary protein) [1, 9]: 30.4 ± 16.2 mg/day
- serum TGF-β1 [1, 9]: 18.6 ± 12.2 ng/mL
- AII (Angiotensin II) [1, 10]: 41.0 ± 12.5 pg/mL
- UP (urinary protein) [1, 10]: 34.3 ± 12.1 mg/day
- serum TGF-β1 [1, 10]: 18.9 ± 10.1 ng/mL
- Glomerulosclerosis Grade (%): 0 ([1]; 8 wk after ad., 7.5 mg/kg): 15.7 ± 19.0%
- Glomerulosclerosis Grade (%): I ([1]; 8 wk after ad., 7.5 mg/kg): 24.0 ± 21.1%
- Glomerulosclerosis Grade (%): II ([1]; 8 wk after ad., 7.5 mg/kg): 30.0 ± 20.8%
- Glomerulosclerosis Grade (%): III ([1]; 8 wk after ad., 7.5 mg/kg): 23.2 ± 28.5%
- Glomerulosclerosis Grade (%): IV ([1]; 8 wk after ad., 7.5 mg/kg): 8.0 ± 13.0%
- Glomerulosclerosis Total Grade ([1]; 8 wk after ad., 7.5 mg/kg): 5.7 ± 2.9
- Glomerulosclerosis Grade (%): 0 ([1]; 8 wk after ad., 15 mg/kg): 37.5 ± 29.3 %
- Glomerulosclerosis Grade (%): I ([1]; 8 wk after ad., 15 mg/kg): 27.5 ± 16.3%
- Glomerulosclerosis Grade (%): II ([1]; 8 wk after ad., 15 mg/kg): 18.8 ± 9.9%
- Glomerulosclerosis Grade (%): III ([1]; 8 wk after ad., 15 mg/kg): 13.3 ± 20.7%
- Glomerulosclerosis Grade (%): IV ([1]; 8 wk after ad., 15 mg/kg): 2.9 ± 8.2%
- Glomerulosclerosis Total Grade ([1]; 8 wk after ad., 15 mg/kg): 3.9 ± 1.7
- Glomerulosclerosis Grade (%): 0 ([1]; 8 wk after ad., 30 mg/kg): 28.3 ± 20.8%
- Glomerulosclerosis Grade (%): I ([1]; 8 wk after ad., 30 mg/kg): 34.2 ± 23.0%
- Glomerulosclerosis Grade (%): II ([1]; 8 wk after ad., 30 mg/kg): 7.5 ± 8.8 %
- Glomerulosclerosis Grade (%): III ([1]; 8 wk after ad., 30 mg/kg): 17.5 ± 30.7%
- Glomerulosclerosis Grade (%): IV ([1]; 8 wk after ad., 30 mg/kg): 6.7 ± 13.4%
- Glomerulosclerosis Total Grade ([1]; 8 wk after ad., 30 mg/kg): 4.9 ± 3.5
- BUN [1, 11]: 39.42 ± 4.686 mg/dL
- serum creatinine (Scr.) [1, 11]: 2.73 ± 0.78 mg/dL
- BUN [1, 12]: 37.32 ± 5.467 mg/dL
- serum creatinine (Scr.) [1, 12]: 2.63 ± 0.38 mg/dL
- BUN [1, 13]: 36.60 ± 5.422 mg/dL
- serum creatinine (Scr.) [1, 13]: 2.10 ± 0.71 mg/dL
- AII (Angiotensin II) [1, 14]: 48.3 ± 48.5 pg/mL
- UP (urinary protein) [1, 14]: 66.7 ± 38.8 mg/day
- serum TGF-β1 [1, 14]: 13.6 ± 7.1 ng/mL
- AII (Angiotensin II) [1, 15]: 41.3 ± 28.4 pg/mL
- UP (urinary protein) [1, 15]: 52.3 ± 34.4 mg/day
- serum TGF-β1 [1, 15]: 12.3 ± 7.7 ng/mL
- AII (Angiotensin II) [1, 16]: 19.2 ± 9.19 pg/mL
- UP (urinary protein) [1, 16]: 48.2 ± 31.6 mg/day
- serum TGF-β1 [1, 16]: 11.6 ± 6.7 ng/mL
- Glomerulus pathological scores, compared with the model group ([1]; 12 weeks after nephrectomy (8 weeks since administration), compound 149 30 mg/kg, Losartan 10 mg/kg/day): less than that of the model group significantly
- rates of 0 grade glomerylus in residual kidney, compared with the model group ([1]; 12 weeks after nephrectomy (8 weeks since administration), compound 149 30 mg/kg, Losartan 10 mg/kg/day, P<0.05): higher than that of the model group with significant difference
- Glomerulosclerosis Grade (%): 0 ([1]; 12 wk after ad., 7.5 mg/kg): 0%
- Glomerulosclerosis Grade (%): I ([1]; 12 wk after ad., 7.5 mg/kg): 2.3 ± 6.3%
- Glomerulosclerosis Grade (%): II ([1]; 12 wk after ad., 7.5 mg/kg): 37.1 ± 16.0%
- Glomerulosclerosis Grade (%): III ([1]; 12 wk after ad., 7.5 mg/kg): 51.4 ± 8.6%
- Glomerulosclerosis Grade (%): IV ([1]; 12 wk after ad., 7.5 mg/kg): 13.8 ± 20.6%
- Glomerulosclerosis Total Grade ([1]; 12 wk after ad., 7.5 mg/kg): 8.6 ± 1.9
- Glomerulosclerosis Grade (%): 0 ([1]; 12 wk after ad., 15 mg/kg): 0%
- Glomerulosclerosis Grade (%): I ([1]; 12 wk after ad., 15 mg/kg): 8.1 ± 14.1%
- Glomerulosclerosis Grade (%): II ([1]; 12 wk after ad., 15 mg/kg): 38.1 ± 27.4%
- Glomerulosclerosis Grade (%): III ([1]; 12 wk after ad., 15 mg/kg): 46.2 ± 26.1%
- Glomerulosclerosis Grade (%): IV ([1]; 12 wk after ad., 15 mg/kg): 9.1 ± 12.6%
- Glomerulosclerosis Total Grade ([1]; 12 wk after ad., 15 mg/kg): 7.7 ± 1.7
- Glomerulosclerosis Grade (%): 0 ([1]; 12 wk after ad., 30 mg/kg): 0%
- Glomerulosclerosis Grade (%): I ([1]; 12 wk after ad., 30 mg/kg): 2.0 ± 4.5%
- Glomerulosclerosis Grade (%): II ([1]; 12 wk after ad., 30 mg/kg): 71.3 ± 11.5 %
- Glomerulosclerosis Grade (%): III ([1]; 12 wk after ad., 30 mg/kg): 26.7 ± 7.8 %
- Glomerulosclerosis Grade (%): IV ([1]; 12 wk after ad., 30 mg/kg): 0%
- Glomerulosclerosis Total Grade ([1]; 12 wk after ad., 30 mg/kg): 6.7 ± 0.2
- number of grade III glomerulus, compared with the model group ([1]; 16 weeks after nephrectomy (12 weeks since administration), compound 149 30 mg/kg (P<0.01), Losartan 10 mg/kg/day (P<0.05)): less than that of the model group significantly
- affection with the major organs such as heart, liver, spleen, and lungs (pathological results) ([1]; rat, in vivo): no significant affection
- improvement of each biochemical index compared with the positive controls ([2]; UUO rats): more significant than those of the Losartan group, and equivalent to those of the Benazepril group
- inflammatory cell infiltration and tubulointerstitial fibrosis (pathological changes) ([2]; UUO rats): significantly attenuated
- pathological results compared with the positive controls ([2]; UUO rats): better than Benazepril and equivalent with Losartan
- BUN ([2]; UUO rats, 5.0 mg/kg): 23.71 ± 4.17 mg/dL
- Scr. (serum creatinine) ([2]; UUO rats, 5.0 mg/kg): 1.58 ± 0.49 mg/kg
- BUN ([2]; UUO rats, 10.0 mg/kg): 20.76 ± 1.56 mg/dL
- Scr. (serum creatinine) ([2]; UUO rats, 10.0 mg/kg): 1.61 ± 0.36 mg/kg
- BUN ([2]; UUO rats, 20.0 mg/kg): 20.77 ± 2.04 mg/dL
- Scr. (serum creatinine) ([2]; UUO rats, 20.0 mg/kg): 1.60 ± 0.14 mg/kg
- overall result in the renal interstitial fibrosis model compared with the positive controls ([2]; unilateral ureteral ligation in rats): better than Benazepril and corresponds to (slightly better than) Losartan
- death ([3]; 5 g/kg and 10 g/kg, observed for 14 days): no death
- increase of average body weights at 14th day after administration ([3]; oral once, 5 g/kg): 7 g
- Body weights of 48 hours after administration ([3]; oral once, 5 g/kg and 10 g/kg): no different
- increase of average body weights at 14th day after administration ([3]; oral once, 10 g/kg): 5 g
- mutagenesis (Ames test result) [4]: no mutagenesis; also recorded: negative
- number of colony formation of Salmonella Typhimurium TA97, TA98, TA100 and TA102 [4]: did not increase

Source: patent publication US8338401B2, “Coumarin-amide derivatives and its preparation, said drug composition and its use” (Institute of Materia Medica Chinese Academy of Medical …, priority 2002, dated 2012)
